The record followed here is patent US20130266665A1, “NANO[…] DISEASE THERAPY” (priority 2012, published 2013).

Common to all, as to type: cell-based, human
For one assay, the system named is OVCAR5 cells. The assay is described as follows: AFM cell stiffness (Young's modulus, peak indentation depth) of cisplatin-sensitive OVCAR5 cells. The following applies: for Young's modulus E (mean±SEM), peak 2 / Young's modulus E (mean±SEM), peak 1: about 24 hours. From the text:
(§1) SKOV3 (American Type Culture Collection; Manassas, Va.) and OVCAR5 cells were maintained in Dulbecco's Modified Eagle's Medium supplemented with about 10% fetal bovine serum. SKOV3-CisR and OVCAR5-CisR cells were established by exposing the parental SKOV3 and OVCAR5 cell lines, respectively, to increasing concentrations of cisplatin over 12 months. OVCAR5-CisR cells are about 20- and SKOV3-CisR cells are about 8-fold more resistant to cisplatin compared to their syngeneic cisplatin sensitive counterparts. Cells were grown at about 37° C. in a humidified atmosphere containing about 5% CO2 and about 95% air.
(§2) Cells were treated with about 1 or about 5 μg/mL cisplatin (Sigma-Aldrich, St. […]
(§3) A protocol was established to exclude unhealthy or apoptotic cells from measurements by staining cells with AnnexinV (Sigma-Aldrich) as an indicator of apoptosis. Stained cells are dead or apoptotic, and typically float away and are no longer attached to a surface. Cells that stained positive for AnnexinV were excluded from AFM analysis. Measurements were conducted using a Catalyst AFM (Bruker Instruments, Santa Barbara, Calif.) with a combined inverted optical/confocal microscope (Zeiss Corp., Thornwood, N.Y.). This combination permits lateral positioning of an AFM tip over the cell center with submicron precision. AFM images and mechanical measurements were collected in contact mode using sharpened silicon nitride cantilevers with experimentally determined spring constants of about 0.02 N/m and a tip radius of less than about 20 nm. Mechanical measurements were obtained at about 37° C. with force measurements recorded at a pulling rate of about 1 Hz. Force-displacement curves were recorded for determination of Young's modulus values. Conversion of force-displacement curves to force-indentation curves allows the determination of the local cell surface elasticity or stiffness (Young's modulus, E). The measurement outcomes include averaged E values. Nanoscope files were converted to Igor. 6.0 (Wavemetrix) and used to generate two-dimensional (2D) stiffness matrix of the cell populations, allowing more precise determination of localized cell stiffness. AFM measurements were obtained in at least 60 cells in three different experiments. The AFM tip was precisely positioned (within micron range) on top of the nucleus using motorized stage and inverted optical view of the combined confocal-AFM microscope.
(§4) Data were expressed as mean±standard error of mean (SEM). Statistical significance was identified by Student's t-test or one-way analysis of variance (Origin 8.0, OriginLab Corporation, Northmpton, Mass.) for the difference among treated pairs.

In assay [1] the test system is OVCAR5-CisR cells. The assay is described as follows: AFM cell stiffness (Young's modulus, peak indentation depth) of cisplatin-resistant OVCAR5-CisR cells.
Source text: as §1, §2, §3, §4

For another assay, the system named is SKOV3-CisR cells. The assay is described as follows: Resistance to cisplatin of SKOV3-CisR cells versus parental SKOV3. Particulars: SKOV3-CisR vs SKOV3.
Source text: as §1

Assay [2] deals with OVCAR5-CisR cells. Put plainly: Resistance to cisplatin of OVCAR5-CisR cells versus parental OVCAR5. Particulars: OVCAR5-CisR vs OVCAR5.
Source text: as §1

[3] abbreviates: about 5 μM cytochalasin D alone.

The structures appear in SMILES notation.

On to `C=C1[C@@H](C)[C@H]2[C@H](Cc3ccccc3)NC(=O)[C@]23[C@H](OC(C)=O)/C=C/[C@@](C)(O)C(=O)[C@@H](C)C/C=C/[C@H]3[C@@H]1O` [cytochalasin D], for which the “Young's modulus E” value in the assay with OVCAR5 cells (setting [3]) was determined as 0.34±0.02 kPa; with OVCAR5-CisR cells [1] (setting [3]), 0.45±0.01 kPa.

`N.N.[Cl][Pt][Cl]` [cisplatin, cis-diamminedichloridoplatinum(II)]: the “Young's modulus E (mean±SEM), peak 2” value came to 1.23±0.04 kPa with OVCAR5 cells (about 1 μg/mL cisplatin) and 1.28±0.06 kPa in the assay on OVCAR5 cells (about 5 μg/mL cisplatin). Moreover, the “Young's modulus E (mean±SEM), peak 1” value in the assay with OVCAR5 cells (about 1 μg/mL cisplatin, untreated E=0.64±0.03 kPa) is given as 0.53±0.01 kPa; in the assay with OVCAR5 cells (about 5 μg/mL cisplatin), 0.65±0.01 kPa. Also, the peak indentation depth amounted to 0.7±0.03 μm with OVCAR5 cells (cisplatin 1 μg/mL, untreated 1.2±0.04 μm) and 0.5±0.03 μm in the assay on OVCAR5 cells (cisplatin 5 μg/mL). Besides, the “difference in cell stiffness between untreated and cisplatin-treated cells” value in the assay on OVCAR5-CisR cells [1] (cisplatin 5 μg/mL, P=0.45) is listed as “no significant difference”. Also, in the assay on OVCAR5-CisR cells [1] (cisplatin 5 μg/mL, untreated 0.5±0.06 μm), the localized peak indentation came out at 0.5±0.04 μm. Besides, the “Young's modulus E, peak 1” value in the assay with OVCAR5-CisR cells [1] (cisplatin 5 μg/mL, untreated 1.0±0.03 kPa) is 0.97±0.01 kPa. For the same compound, the “Young's modulus E, peak 2” value in the assay with OVCAR5-CisR cells [1] (cisplatin 5 μg/mL, untreated 1.84±0.1 kPa) was determined as 1.88±0.05 kPa. Further, the “fold more resistant to cisplatin compared to syngeneic cisplatin sensitive counterpart” value with SKOV3-CisR cells turned out to be 8 fold; in the assay on OVCAR5-CisR cells [2] it was 20 fold.
